# Assay results published in ChEMBL document CHEMBL3407472, “Multi-parameter optimization of aza-follow-ups to BI 207524, a thumb pocket 1 HCV NS5B polymerase inhibitor. Part 2: Impact of lipophilicity on promiscuity and in vivo toxicity” (Bioorg Med Chem Lett, 2015).
# How the values were obtained:
# [1] = Lipophilicity, log D of the compound at pH 7.4; format: physicochemical; conditions: buffer
# Hepatitis C virus [2] = test: Antiviral activity against Hepatitis C virus genotype 1b infected in human Huh cells assessed as inhibition of viral replication by RT-PCR-based replicon assay; format: functional, cell-based, Hepacivirus hominis
# Hepatitis C virus [3] = test: Antiviral activity against Hepatitis C virus genotype 1a infected in human Huh cells assessed as inhibition of viral replication by RT-PCR-based replicon assay; format: functional, cell-based, Hepacivirus hominis; conditions: subtype 1a
logD [1],EC50 (Hepatitis C virus [2]) [nM],EC50 (Hepatitis C virus [3]) [nM],SMILES
3.9,11,–,CCOc1nc(NC(=O)C2(NC(=O)c3ccc4c(C5CCCC5)c(-c5ccc(F)cn5)n(C)c4c3)CCCC2)cnc1/C=C/C(=O)O
3.9,3,14,CCOc1nc(NC(=O)C(C)(C)NC(=O)c2ccc3c(c2)c(C)c(-c2ccc(F)cn2)n3C2CCCCC2)ccc1/C=C/C(=O)O
–,116,–,COc1nc(NC(=O)C2(NC(=O)c3ccc4c(C5CCCC5)c(-c5ncc(Br)cn5)n(C)c4c3)CCC2)cnc1/C=C/C(=O)O
3.9,9,–,COc1nc(NC(=O)C2(NC(=O)c3ccc4c(C5CCCC5)c(-c5ncc(Br)cn5)n(C)c4c3)CCC2)ccc1/C=C/C(=O)O
4,12,68,COc1nc(NC(=O)C2(NC(=O)c3ccc4c(C5CCCC5)c(-c5ccc(F)cn5)n(C)c4c3)CCC2)ccc1/C=C/C(=O)O
4.2,10,52,COc1nc(NC(=O)C2(NC(=O)c3ccc4c(c3)c(C)c(-c3ccc(F)cn3)n4C3CCCCC3)CCC2)ccc1/C=C/C(=O)O
–,44,–,COc1nc(NC(=O)C(C)(C)NC(=O)c2ccc3c(C4CCCC4)c(-c4ccc(Cl)cn4)n(C)c3c2)cnc1/C=C/C(=O)O
–,50,–,COc1nc(NC(=O)C2(NC(=O)c3ccc4c(C5CCCC5)c(-c5cncnc5)n(C)c4c3)CCC2)ccc1/C=C/C(=O)O
2.4,16,–,COc1nc(NC(=O)C(C)(C)NC(=O)c2ccc3c(C4CCCC4)c(-c4cnccn4)n(C)c3c2)ccc1/C=C/C(=O)O
–,29,–,COc1nc(NC(=O)C2(NC(=O)c3ccc4c(C5CCCC5)c(-c5ncc(Cl)cn5)n(C)c4c3)CCCC2)cnc1/C=C/C(=O)O
–,330,–,COc1nc(NC(=O)C(C)(C)NC(=O)c2ccc3c(C4CCCC4)c(-c4cncnc4)n(C)c3c2)cnc1/C=C/C(=O)O
–,32,–,COc1nc(NC(=O)C2(NC(=O)c3ccc4c(C5CCCC5)c(-c5ncc(Cl)cn5)n(C)c4c3)CCC2)cnc1/C=C/C(=O)O
–,390,–,COc1nc(NC(=O)C2(NC(=O)c3ccc4c(C5CCCC5)c(-c5cnccn5)n(C)c4c3)CCCC2)cnc1/C=C/C(=O)O
> 5.5,4,–,CCOc1nc(NC(=O)C2(NC(=O)c3ccc4c(C5CCCC5)c(-c5ccc(Cl)cn5)n(C)c4c3)CCCC2)ccc1/C=C/C(=O)O
–,53,–,CCOc1nc(NC(=O)C2(NC(=O)c3ccc4c(C5CCCC5)c(-c5ccc(Cl)cn5)n(C)c4c3)CCC2)cnc1/C=C/C(=O)O
–,185,–,COc1nc(NC(=O)C2(NC(=O)c3ccc4c(C5CCCC5)c(-c5cncnc5)n(C)c4c3)CCC2)cnc1/C=C/C(=O)O
4.1,5,–,CCOc1nc(NC(=O)C2(NC(=O)c3ccc4c(C5CCCC5)c(-c5cnccn5)n(C)c4c3)CCCC2)ccc1/C=C/C(=O)O
–,38,–,COc1nc(NC(=O)C2(NC(=O)c3ccc4c(C5CCCC5)c(-c5ncc(Br)cn5)n(C)c4c3)CCCC2)cnc1/C=C/C(=O)O
–,4,–,CCOc1nc(NC(=O)C2(NC(=O)c3ccc4c(C5CCCC5)c(-c5ccccn5)n(C)c4c3)CCCC2)ccc1/C=C/C(=O)O
–,21,–,COc1nc(NC(=O)C(C)(C)NC(=O)c2ccc3c(C4CCCC4)c(-c4ccccn4)n(C)c3c2)ccc1/C=C/C(=O)O
3.6,5,–,CCOc1nc(NC(=O)C2(NC(=O)c3ccc4c(C5CCCC5)c(-c5cncnc5)n(C)c4c3)CCCC2)ccc1/C=C/C(=O)O
–,26,–,COc1nc(NC(=O)C(C)(C)NC(=O)c2ccc3c(C4CCCC4)c(-c4ccc(F)cn4)n(C)c3c2)cnc1/C=C/C(=O)O
–,575,–,COc1nc(NC(=O)C2(NC(=O)c3ccc4c(C5CCCC5)c(-c5cncnc5)n(C)c4c3)CCCC2)cnc1/C=C/C(=O)O
–,31,–,COc1nc(NC(=O)C2(NC(=O)c3ccc4c(C5CCCC5)c(-c5ccccn5)n(C)c4c3)CCCC2)cnc1/C=C/C(=O)O
–,89,–,CCOc1nc(NC(=O)C2(NC(=O)c3ccc4c(C5CCCC5)c(-c5cncnc5)n(C)c4c3)CCC2)cnc1/C=C/C(=O)O
–,37,–,COc1nc(NC(=O)C2(NC(=O)c3ccc4c(C5CCCC5)c(-c5ccc(F)cn5)n(C)c4c3)CCC2)cnc1/C=C/C(=O)O
–,40,–,COc1nc(NC(=O)C2(NC(=O)c3ccc4c(C5CCCC5)c(-c5ccc(Cl)cn5)n(C)c4c3)CCCC2)cnc1/C=C/C(=O)O
> 6.2,5,–,CCOc1nc(NC(=O)C2(NC(=O)c3ccc4c(c3)c(C)c(-c3ccc(F)cn3)n4C3CCCCC3)CCCC2)ccc1/C=C/C(=O)O

# Further lines, the molecule ahead of its results:
SMILES,logD [1],EC50 (Hepatitis C virus [2]) [nM],EC50 (Hepatitis C virus [3]) [nM]
CCOc1nc(NC(=O)C(C)(C)NC(=O)c2ccc3c(C4CCCC4)c(-c4ncc(Cl)cn4)n(C)c3c2)ccc1/C=C/C(=O)O,4,6,7
COc1nc(NC(=O)C2(NC(=O)c3ccc4c(c3)c(C)c(-c3ccc(F)cn3)n4C3CCCCC3)CCC2)cnc1/C=C/C(=O)O,3.3,17,310
COc1nc(NC(=O)C(C)(C)NC(=O)c2ccc3c(c2)c(C)c(-c2ccc(F)cn2)n3C2CCCCC2)ccc1/C=C/C(=O)O,–,3,–
CCOc1nc(NC(=O)C(C)(C)NC(=O)c2ccc3c(C4CCCC4)c(-c4cncnc4)n(C)c3c2)cnc1/C=C/C(=O)O,2.2,82,–
CCOc1nc(NC(=O)C2(NC(=O)c3ccc4c(C5CCCC5)c(-c5cnccn5)n(C)c4c3)CCC2)cnc1/C=C/C(=O)O,2.9,22,–
CCOc1nc(NC(=O)C(C)(C)NC(=O)c2ccc3c(C4CCCC4)c(-c4ncc(Br)cn4)n(C)c3c2)cnc1/C=C/C(=O)O,3.4,14,67
CCOc1nc(NC(=O)C(C)(C)NC(=O)c2ccc3c(C4CCCC4)c(-c4ccccn4)n(C)c3c2)cnc1/C=C/C(=O)O,2.2,44,–
COc1nc(NC(=O)C(C)(C)NC(=O)c2ccc3c(C4CCCC4)c(-c4ncc(Cl)cn4)n(C)c3c2)ccc1/C=C/C(=O)O,3.3,47,–
CCOc1nc(NC(=O)C2(NC(=O)c3ccc4c(C5CCCC5)c(-c5ncc(Br)cn5)n(C)c4c3)CCCC2)cnc1/C=C/C(=O)O,> 4.2,9,–
CCOc1nc(NC(=O)C(C)(C)NC(=O)c2ccc3c(C4CCCC4)c(-c4cnccn4)n(C)c3c2)cnc1/C=C/C(=O)O,2.4,36,–
CCOc1nc(NC(=O)C2(NC(=O)c3ccc4c(C5CCCC5)c(-c5cncnc5)n(C)c4c3)CCCC2)cnc1/C=C/C(=O)O,2.8,18,–
CCOc1nc(NC(=O)C2(NC(=O)c3ccc4c(C5CCCC5)c(-c5ncc(Cl)cn5)n(C)c4c3)CCC2)cnc1/C=C/C(=O)O,3.5,–,–
COc1nc(NC(=O)C2(NC(=O)c3ccc4c(C5CCCC5)c(-c5cnccn5)n(C)c4c3)CCC2)cnc1/C=C/C(=O)O,–,49,–
CCOc1nc(NC(=O)C(C)(C)NC(=O)c2ccc3c(C4CCCC4)c(-c4ccc(F)cn4)n(C)c3c2)cnc1/C=C/C(=O)O,–,18,–
COc1nc(NC(=O)C(C)(C)NC(=O)c2ccc3c(C4CCCC4)c(-c4ncc(Br)cn4)n(C)c3c2)cnc1/C=C/C(=O)O,2.6,23,–
CCOc1nc(NC(=O)C2(NC(=O)c3ccc4c(C5CCCC5)c(-c5ccc(F)cn5)n(C)c4c3)CCC2)cnc1/C=C/C(=O)O,–,20,89
COc1nc(NC(=O)C(C)(C)NC(=O)c2ccc3c(C4CCCC4)c(-c4ccc(Cl)cn4)n(C)c3c2)ccc1/C=C/C(=O)O,3.9,12,–

SMILES,logD [1],EC50 (Hepatitis C virus [2]) [nM],EC50 (Hepatitis C virus [3]) [nM]
CCOc1nc(NC(=O)C(C)(C)NC(=O)c2ccc3c(C4CCCC4)c(-c4cnccn4)n(C)c3c2)ccc1/C=C/C(=O)O,2.9,7,–
COc1nc(NC(=O)C2(NC(=O)c3ccc4c(C5CCCC5)c(-c5ccc(Cl)cn5)n(C)c4c3)CCC2)ccc1/C=C/C(=O)O,4.6,13,–
COc1nc(NC(=O)C(C)(C)NC(=O)c2ccc3c(C4CCCC4)c(-c4ccccn4)n(C)c3c2)cnc1/C=C/C(=O)O,–,50,–
COc1nc(NC(=O)C(C)(C)NC(=O)c2ccc3c(C4CCCC4)c(-c4ncc(Br)cn4)n(C)c3c2)ccc1/C=C/C(=O)O,3.2,7,–
COc1nc(NC(=O)C2(NC(=O)c3ccc4c(C5CCCC5)c(-c5ccccn5)n(C)c4c3)CCC2)cnc1/C=C/C(=O)O,–,43,–
COc1nc(NC(=O)C2(NC(=O)c3ccc4c(C5CCCC5)c(-c5ccc(Cl)cn5)n(C)c4c3)CCC2)cnc1/C=C/C(=O)O,–,56,–
CCOc1nc(NC(=O)C2(NC(=O)c3ccc4c(C5CCCC5)c(-c5ccc(Cl)cn5)n(C)c4c3)CCCC2)cnc1/C=C/C(=O)O,> 4.4,13,–
CCOc1nc(NC(=O)C2(NC(=O)c3ccc4c(C5CCCC5)c(-c5ccccn5)n(C)c4c3)CCCC2)cnc1/C=C/C(=O)O,2.6,16,–
CCOc1nc(NC(=O)C2(NC(=O)c3ccc4c(c3)c(C)c(-c3ccc(F)cn3)n4C3CCCCC3)CCCC2)cnc1/C=C/C(=O)O,4.2,6,–
COc1nc(NC(=O)C(C)(C)NC(=O)c2ccc3c(C4CCCC4)c(-c4cnccn4)n(C)c3c2)cnc1/C=C/C(=O)O,–,55,–
COc1nc(NC(=O)C(C)(C)NC(=O)c2ccc3c(c2)c(C)c(-c2ccc(F)cn2)n3C2CCCCC2)cnc1/C=C/C(=O)O,–,27,–
COc1nc(NC(=O)C2(NC(=O)c3ccc4c(C5CCCC5)c(-c5ccc(F)cn5)n(C)c4c3)CCCC2)cnc1/C=C/C(=O)O,–,30,–
CCOc1nc(NC(=O)C2(NC(=O)c3ccc4c(C5CCCC5)c(-c5ccc(F)cn5)n(C)c4c3)CCCC2)ccc1/C=C/C(=O)O,> 5.3,4,–
CCOc1nc(NC(=O)C2(NC(=O)c3ccc4c(C5CCCC5)c(-c5ncc(Br)cn5)n(C)c4c3)CCC2)cnc1/C=C/C(=O)O,4.2,30,–
CCOc1nc(NC(=O)C2(NC(=O)c3ccc4c(C5CCCC5)c(-c5ncc(Br)cn5)n(C)c4c3)CCC2)ccc1/C=C/C(=O)O,–,12,24
CCOc1nc(NC(=O)C(C)(C)NC(=O)c2ccc3c(C4CCCC4)c(-c4ccccn4)n(C)c3c2)ccc1/C=C/C(=O)O,3.5,2,–
CCOc1nc(NC(=O)C2(NC(=O)c3ccc4c(C5CCCC5)c(-c5ncc(Br)cn5)n(C)c4c3)CCCC2)ccc1/C=C/C(=O)O,> 6.6,5,–
